Experimental data taken from patent US10227323B2, “Glucosylceramide synthase inhibitors for the treatment of diseases” (BIOMARIN PHARMACEUTICAL INC., priority 2013, dated 2019).

Target: T1, GCS (Canis lupus familiaris, UniProt A0A8I3MXG6)
T1 sequence (A0A8I3MXG6 1-394): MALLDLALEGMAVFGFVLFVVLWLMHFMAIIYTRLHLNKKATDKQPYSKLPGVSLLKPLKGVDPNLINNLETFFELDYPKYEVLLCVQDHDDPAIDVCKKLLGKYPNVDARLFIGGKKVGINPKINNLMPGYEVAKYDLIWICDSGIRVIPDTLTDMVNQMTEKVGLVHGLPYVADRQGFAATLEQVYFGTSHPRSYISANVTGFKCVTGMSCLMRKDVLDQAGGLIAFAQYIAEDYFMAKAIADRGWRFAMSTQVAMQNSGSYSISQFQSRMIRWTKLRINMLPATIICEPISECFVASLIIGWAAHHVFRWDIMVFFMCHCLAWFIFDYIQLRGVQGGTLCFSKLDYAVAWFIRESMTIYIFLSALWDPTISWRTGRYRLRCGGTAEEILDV
Assay: Assay 1: GCS Enzymatic Assay (MDCK cell lysate, C6-NBD-Ceramide, LC/MS)
Format: biochemical, canine
Settings: Table 1; MDCK cell lysate; read-out: IC50 (nM) generated from Assay 1
Description: This assay was modified based on the study by Larsen et al. (J. Lipid Res. 2011, 53, 282). Madin-Darby canine kidney (MDCK) cell lysate was prepared using M-PER Mammalian Protein Extraction Reagent (Thermal Scientific) in the presence of a protease inhibitor cocktail (Roche). Protein concentration was determined using BCA assay kit (Pierce). Sixty micrograms of MDCK cell lysate was incubated with various concentrations of a compound described herein from 0.001 μM-10 μM, respectively, in 100 mM Tris buffer (pH 7.5) containing 10 mM MgCl2, 1 mM dithiothreitol, 1 mM EGTA, 2 mM NAD, 100 μM UDP-glucose, 10 μM C6-NBD-Ceramide (Matreya LLC, Pleasant Gap, Pa.), 35 μM dioleoylphosphatidylcholine and 5 μM sulfatide (Sigma) in a final reaction volume of 100 μL at 37° C. for 1 hour. 0.1% DMSO was used as mock treatment or control. The reaction was terminated by adding 100 μL acetonitrile solution and subjected to LC/MS analysis.
The quantitative analysis of NBD-Ceramide and glucosylceramide was performed on a Shimadzu ultra-fast liquid chromatography (Shimadzu, Japan) coupled with API 4000 triple quadrupole mass spectrometer (Applied Biosystems, Concord, Ontario, Canada). Sample separation was conducted on a Waters Xbridge™ BEH130 C18, 100 mm×4.6 mm i.d, 3.5 μm (Milford, Mass., USA). The mobile phase consisted of water and acetonitrile supplemented with 0.1% formic acid (v/v). The flow rate was 1.0 mL/min. The initial mobile phase was 20% acetonitrile and was ramped in a linear fashion to 50% acetonitrile in 0.4 min. From 0.4 to 1.5 min, the gradient was ramped to 98% acetonitrile, and then was held at […] until 8.0 min. Acetonitrile was reset to 20% in 1.5 min, and maintained until 10.0 min. The total run time was 10.0 min. The MS/MS detection was performed in ESI positive mode. The mass transition of NBD-Ceramide was m/z 576.36→558.40 under the collision energy of 15 V, and the mass transition of glucosylceramide was m/z 738.35→558.40 under 21V collision energy. The cell lysate was diluted with equal volume of acetonitrile. Aliquots of 50 μL diluted samples were added to 1.5 mL tubes, and 100 μL of acetonitrile containing internal standard (100 ng/mL tolbutamide) were added for protein precipitation. The mixture were vortexed and then centrifuged at 13000 rpm for 10 min. 70 μL of supernatant were mixed with 140 μL of H2O and the final solution were injected for LC/MS/MS analysis and IC50's and/or percent inhibitions calculated.

Structure (SMILES) | IC50 [nM]
O=C(N[C@H](CN1CCCC1)[C@H](O)c1ccc(OC2CCOC2)c(Cl)c1)C(F)(F)c1cc2cc(Cl)ccc2o1 (single isomer, unassigned) [Compound 47] | < 50
O=C(N[C@H](CN1CCCC1)[C@H](O)c1ccc2c(c1)OCCO2)C(F)(F)C1Cc2ccccc2C1 [Compound 1, 2-(2,3-dihydro-1H-inden-2-yl)-N-((1R,2R)-1-(2,3-dihydrobenzo[b][1,4]dioxin-6-yl)-1-hydroxy-3-(pyrrolidin-1-yl)propan-2-yl)-2,2-difluoroacetamide] | < 50
O=C(N[C@H](CN1CCCC1)[C@H](O)c1ccc2c(c1)OCCO2)C(F)(F)c1ccc2c(c1)OCCO2 [Compound 2, 2-(2,3-dihydrobenzo[b][1,4]dioxin-6-yl)-N-((1R,2R)-1-(2,3-dihydrobenzo[b][1,4]dioxin-6-yl)-1-hydroxy-3-(pyrrolidin-1-yl)propan-2-yl)-2,2-difluoroacetamide] | 50 to 5000
O=C(N[C@H](CN1CCCC1)[C@H](O)c1ccc2c(c1)OCCO2)C(F)(F)c1cc2cc(Cl)ccc2s1 [Compound 3, 2-(5-chlorobenzo[b]thiophen-2-yl)-N-((1R,2R)-1-(2,3-dihydrobenzo[b][1,4]dioxin-6-yl)-1-hydroxy-3-(pyrrolidin-1-yl)propan-2-yl)-2,2-difluoroacetamide] | < 50
COc1ccc([C@H](O)[C@@H](CN2CCCC2)NC(=O)C(F)(F)C2Cc3ccccc3C2)cc1F [Compound 5, 2-(2,3-dihydro-1H-inden-2-yl)-2,2-difluoro-N-((1S,2R)-1-(3-fluoro-4-methoxyphenyl)-1-hydroxy-3-(pyrrolidin-1-yl)propan-2-yl)acetamide] | < 50
COc1ccc(C(O)[C@@H](CN2CCCC2)NC(=O)C(F)(F)C2Cc3ccccc3C2)cc1F (stereo partly drawn) [Compound 5A, 2-(2,3-dihydro-1H-inden-2-yl)-2,2-difluoro-N-((2R)-1-(3-fluoro-4-methoxyphenyl)-1-hydroxy-3-(pyrrolidin-1-yl)propan-2-yl)acetamide] | 50 to 5000
O=C(N[C@H](CN1CCCC1)[C@H](O)c1ccc2c(c1)OCCO2)C(F)(F)C1Cc2cc(Cl)c(Cl)cc2C1 [Compound 7, 2-(5,6-dichloro-2,3-dihydro-1H-inden-2-yl)-N-((1R,2R)-1-(2,3-dihydrobenzo[b][1,4]dioxin-6-yl)-1-hydroxy-3-(pyrrolidin-1-yl)propan-2-yl)-2,2-difluoroacetamide] | < 50
O=C(N[C@H](CN1CCCC1)[C@H](O)c1ccc2c(c1)OCCO2)C(F)(F)c1cc2cc(Cl)ccc2o1 [Compound 11, 2-(5-chlorobenzofuran-2-yl)-N-((1R,2R)-1-(2,3-dihydrobenzo[b][1,4]dioxin-6-yl)-1-hydroxy-3-(pyrrolidin-1-yl)propan-2-yl)-2,2-difluoroacetamide] | < 50

Same assay, conditions: Table 1; values marked *; MDCK cell lysate

Structure (SMILES) | % inhibition generated from Assay 1
COc1ccc(C(O)[C@@H](CN2CCCC2)NC(=O)C(F)(F)c2cc3cc(Cl)ccc3s2)cc1F (stereo partly drawn) [Compound 4, 2-(5-chlorobenzo[b]thiophen-2-yl)-2,2-difluoro-N-((2R)-1-(3-fluoro-4-methoxyphenyl)-1-hydroxy-3-(pyrrolidin-1-yl)propan-2-yl)acetamide] | B* (the compound had a % inhibition of greater than or equal to about 3% but less than about 50%)
COc1ccc([C@@H](O)[C@@H](CN2CCCC2)NC(=O)C(F)(F)C2Cc3ccccc3C2)cc1F [Compound 5B, 2-(2,3-dihydro-1H-inden-2-yl)-2,2-difluoro-N-((1R,2R)-1-(3-fluoro-4-methoxyphenyl)-1-hydroxy-3-(pyrrolidin-1-yl)propan-2-yl)acetamide] | B* (the compound had a % inhibition of greater than or equal to about 3% but less than about 50%)
O=C(N[C@H](CN1CCCC1)[C@H](O)c1ccc2c(c1)OCCO2)C(F)(F)c1nc2cc(Cl)ccc2s1 [Compound 6, 2-(5-chlorobenzo[d]thiazol-2-yl)-N-((1R,2R)-1-(2,3-dihydrobenzo[b][1,4]dioxin-6-yl)-1-hydroxy-3-(pyrrolidin-1-yl)propan-2-yl)-2,2-difluoroacetamide] | B* (the compound had a % inhibition of greater than or equal to about 3% but less than about 50%)
COc1ccc(F)c([C@@H](O)[C@@H](CN2CCCC2)NC(=O)C(F)(F)C2Cc3ccccc3C2)c1 [Compound 8, 2-(2,3-dihydro-1H-inden-2-yl)-2,2-difluoro-N-((1R,2R)-1-(2-fluoro-5-methoxyphenyl)-1-hydroxy-3-(pyrrolidin-1-yl)propan-2-yl)acetamide] | B* (the compound had a % inhibition of greater than or equal to about 3% but less than about 50%)
COc1ccc(F)c([C@H](O)[C@@H](CN2CCCC2)NC(=O)C(F)(F)C2Cc3ccccc3C2)c1 [Compound 8J, 2-(2,3-dihydro-1H-inden-2-yl)-2,2-difluoro-N-((1S,2R)-1-(2-fluoro-5-methoxyphenyl)-1-hydroxy-3-(pyrrolidin-1-yl)propan-2-yl)acetamide] | B* (the compound had a % inhibition of greater than or equal to about 3% but less than about 50%)
Cn1c(C(F)(F)C(=O)N[C@H](CN2CCCC2)[C@H](O)c2ccc3c(c2)OCCO3)nc2cc(Cl)ccc21 [Compound 10, 2-(5-chloro-1-methyl-1H-benzo[d]imidazol-2-yl)-N-((1R,2R)-1-(2,3-dihydrobenzo[b][1,4]dioxin-6-yl)-1-hydroxy-3-(pyrrolidin-1-yl)propan-2-yl)-2,2-difluoroacetamide] | B* (the compound had a % inhibition of greater than or equal to about 3% but less than about 50%)

Same assay, conditions: Table 2; data marked by *

Structure (SMILES) | % inhibition generated from Assay 1
CC(C)Oc1cc(C(O)[C@@H](CN2CCCC2)NC(=O)C(F)(F)c2cc3cc(Cl)ccc3o2)ccn1 (stereo in doubt) [Compound 103, 2-(5-chlorobenzofuran-2-yl)-2,2-difluoro-N-((1S,2R)-1-hydroxy-1-(2-isopropoxypyridin-4-yl)-3-(pyrrolidin-1-yl)propan-2-yl)acetamide] | B* (the compound had a % inhibition of greater than or equal to about 3% but less than about 50%)
O=C(N[C@H](CN1CCC1)C(O)c1cc(F)c2c(c1)OCCO2)C(F)(F)CCc1ccc2ccccc2c1 (stereo in doubt) [Compound 113, N-((1S,2R)-3-(azetidin-1-yl)-1-(8-fluoro-2,3-dihydrobenzo[b][1,4]dioxin-6-yl)-1-hydroxypropan-2-yl)-2,2-difluoro-4-(naphthalen-2-yl)butanamide] | B* (the compound had a % inhibition of greater than or equal to about 3% but less than about 50%)
CC1(C)CCc2cc(C(O)[C@@H](CN3CCCC3)NC(=O)C(F)(F)CCc3ccc4ccccc4c3)ccc2O1 (stereo in doubt) [Compound 117, N-((1S,2R)-1-(2,2-dimethylchroman-6-yl)-1-hydroxy-3-(pyrrolidin-1-yl)propan-2-yl)-2,2-difluoro-4-(naphthalen-2-yl)butanamide] | B* (the compound had a % inhibition of greater than or equal to about 3% but less than about 50%)
O=C(N[C@H](CN1CCCC1)C(O)c1ccc(N2CCOCC2)c(Cl)c1)C(F)(F)CCc1ccc2ccccc2c1 (stereo in doubt) [Compound 124, N-((1S,2R)-1-(3-chloro-4-morpholinophenyl)-1-hydroxy-3-(pyrrolidin-1-yl)propan-2-yl)-2,2-difluoro-4-(naphthalen-2-yl)butanamide] | B* (the compound had a % inhibition of greater than or equal to about 3% but less than about 50%)

Same assay, conditions: Table 2; data without asterisk; read-out: IC50 (nM) generated from Assay 1

Structure (SMILES) | IC50 [nM]
CC(C)Oc1ccc(C(O)[C@@H](CN2CCCC2)NC(=O)C(F)(F)c2cc3cc(Cl)ccc3o2)cn1 (stereo in doubt) [Compound 80, 2-(5-chlorobenzofuran-2-yl)-2,2-difluoro-N-((1S,2R)-1-hydroxy-1-(6-isopropoxypyridin-3-yl)-3-(pyrrolidin-1-yl)propan-2-yl)acetamide] | 50 to 5000
